Experimental data from PMC5149398 (Journal of medicinal chemistry, 2016).

What was measured:
AKR1C3 [1] = target: T1, AKR1C3 (Homo sapiens, UniProt P42330); assay: S-tetralol oxidation assay, AKR1C3; type: biochemical
T1 sequence (P42330 1-323): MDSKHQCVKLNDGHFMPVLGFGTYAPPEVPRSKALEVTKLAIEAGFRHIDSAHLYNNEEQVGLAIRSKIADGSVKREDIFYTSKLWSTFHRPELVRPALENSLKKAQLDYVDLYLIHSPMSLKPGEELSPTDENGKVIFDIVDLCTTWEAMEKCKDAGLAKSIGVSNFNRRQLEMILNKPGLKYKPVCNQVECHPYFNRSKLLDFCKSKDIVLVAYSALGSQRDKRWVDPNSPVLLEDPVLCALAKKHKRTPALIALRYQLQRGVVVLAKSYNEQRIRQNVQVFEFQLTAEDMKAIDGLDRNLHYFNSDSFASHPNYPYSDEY

AKR1C3 [2] = target: T1, AKR1C3; assay: AKR1C3 catalyzed NADPH dependent reduction of [3H]-Δ4-AD; type: biochemical
AKR1C3 [3] = target: T1, AKR1C3; assay: Radiometric assay of androgen metabolism; type: cell-based; details: LNCaP-AKR1C3 cells, 100 nM Δ4-AD, 30 µM compound, 48 h
[4] = tested on: PSA expression in LNCaP-AKR1C3 cells; assay: Δ4-AD induced PSA expression in LNCaP-AKR1C3 cells; type: cell-based; details: 100 nM Δ4-AD, 30 µM compound, 24 h
AKR1C2 = target: T2, AKR1C2 (Homo sapiens, UniProt P52895); details: 5α-DHT reduction, <100 µM concentrations
T2 sequence (P52895 1-323): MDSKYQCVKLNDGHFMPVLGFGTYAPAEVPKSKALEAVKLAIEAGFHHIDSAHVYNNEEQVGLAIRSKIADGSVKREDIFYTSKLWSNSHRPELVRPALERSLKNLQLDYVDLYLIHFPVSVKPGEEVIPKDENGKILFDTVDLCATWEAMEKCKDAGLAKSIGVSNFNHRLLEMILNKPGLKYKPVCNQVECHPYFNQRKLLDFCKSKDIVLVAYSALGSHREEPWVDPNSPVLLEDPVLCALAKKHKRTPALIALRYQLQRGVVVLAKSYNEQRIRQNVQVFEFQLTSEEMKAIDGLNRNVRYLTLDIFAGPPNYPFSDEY

COX-2 = details: no COX-2 method in this paper, ref Duggan et al.[42], cited from earlier work

CSc1ccc2cc(C(C)C(=O)O)ccc2c1 (racemic) [(±)-9, 2-(6-(Methylthio)naphthalen-2-yl)propanoic Acid]
increase in the inhibitory potency for AKR1C3 over that seen with naproxen (AKR1C3 [1]; S-tetralol oxidation): 3 fold

CC(C(=O)O)c1ccc2cc([S+](C)[O-])ccc2c1 (racemic) [(±)-10, 2-(6-(Methylsulfinyl)naphthalen-2-yl)propanoic Acid]
loss of inhibitory potency on AKR1C3 compared to 9 (AKR1C3 [1]; S-tetralol oxidation): greater than 15 fold

CC(C(=O)O)c1ccc2cc(S(C)(=O)=O)ccc2c1 (racemic) [(±)-11, 2-(6-(Methylsulfonyl)naphthalen-2-yl)propanoic Acid]
loss of inhibitory potency on AKR1C3 compared to 9 (AKR1C3 [1]; S-tetralol oxidation): greater than 15 fold

CC[C@@H](C(=O)O)c1ccc2cc(OC)ccc2c1 [(R)-14a, (R)-2-(6-methoxynaphthalen-2-yl)butanoic acid]
mode of AKR1C3 inhibition (AKR1C3 [1]; oxidation of S-tetralol): competitively inhibited
mode of AKR1C3 inhibition (AKR1C3 [2]): same mode of inhibition
production of [3H]-testosterone glucuronide (AKR1C3 [3]): significantly inhibited
Δ4-AD induced increase in PSA expression [4]: reduced
inhibition of AKR1C2 (AKR1C2): did not display any significant inhibition
COX-2 IC50 (µM) (COX-2): no inhibition ^a

CC[C@H](C(=O)O)c1ccc2cc(OC)ccc2c1 [(S)-14b]
COX-2 IC50 (µM) (COX-2): no inhibition ^a

COc1ccc2cc([C@@H](C)C(=O)O)ccc2c1 [R-naproxen (1a), reference compound]
IC50 (COX-2; read-out: COX-2 IC50): > 25 µM
